Results reported in ChEMBL document CHEMBL1201861, “Genomics of Drug Sensitity in Cancer screening data, Wellcome Trust Sanger Institute”.

Tests used:
Assay in all cases: cells
COR-L88 = type: functional, cell-based; details: Homo sapiens;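 further: growth inhibition of COR-L88 cells, read out with a cell viability assay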
Description: SANGER: Inhibition of human COR-L88 cell growth in a cell viability assay.

Calu-3 = type: functional, cell-based, Homo sapiens; details: Homo sapiens, Calu-3;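 further: growth inhibition of human Calu-3 cells, determined with a cell viability assay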
Description: SANGER: Inhibition of human Calu-3 cell growth in a cell viability assay.

DK-MG = type: functional, cell-based, Homo sapiens; details: Homo sapiens, DK-MG;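 further: growth inhibition of DK-MG cells, read out with a cell viability assay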
Description: SANGER: Inhibition of human DK-MG cell growth in a cell viability assay.

Daoy = type: functional, cell-based, Homo sapiens; details: Homo sapiens, Daoy;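 further: daoy cell growth inhibition, read out as cell viability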
Description: SANGER: Inhibition of human Daoy cell growth in a cell viability assay.

EC-GI-10 = type: functional, cell-based, Homo sapiens; details: Homo sapiens, EC-GI-10
Description: SANGER: Inhibition of human EC-GI-10 cell growth in a cell viability assay.

EGI-1 = type: functional, cell-based, Homo sapiens; details: Homo sapiens, EGI-1;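 further: cell viability readout used to gauge growth inhibition of EGI-1 cells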
Description: SANGER: Inhibition of human EGI-1 cell growth in a cell viability assay.

ES1 = type: functional, cell-based, Homo sapiens; details: Homo sapiens, ES1
Description: SANGER: Inhibition of human ES1 cell growth in a cell viability assay.

ES3 = type: functional, cell-based, Homo sapiens; details: Homo sapiens, ES3;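 further: growth inhibition of ES3 cells, read out with a cell viability assay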
Description: SANGER: Inhibition of human ES3 cell growth in a cell viability assay.

ES8 = type: functional, cell-based, Homo sapiens; details: Homo sapiens, ES8;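 further: growth inhibition of human ES8 cells, read out with a cell viability assay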
Description: SANGER: Inhibition of human ES8 cell growth in a cell viability assay.

ESS-1 = type: functional, cell-based, Homo sapiens; details: Homo sapiens, ESS-1;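 further: growth inhibition of human ESS-1 cells, read out by a cell viability assay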
Description: SANGER: Inhibition of human ESS-1 cell growth in a cell viability assay.

EW-18 = type: functional, cell-based; details: Homo sapiens;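 further: growth inhibition of EW-18 cells, read out by a cell viability assay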
Description: SANGER: Inhibition of human EW-18 cell growth in a cell viability assay.

HCE-T = type: functional, cell-based, Homo sapiens; details: Homo sapiens, HCE-T;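 further: cell viability assay read-out, reporting inhibition of HCE-T cell growth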
Description: SANGER: Inhibition of human HCE-T cell growth in a cell viability assay.

HT1197 = type: functional, cell-based, Homo sapiens, HT-1197; details: Homo sapiens, HT1197
Description: SANGER: Inhibition of human HT-1197 cell growth in a cell viability assay.

IST-MES1 = type: functional, cell-based, Homo sapiens; details: Homo sapiens, IST-MES1;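 further: growth inhibition of IST-MES1 cells, measured with a cell viability assay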
Description: SANGER: Inhibition of human IST-MES1 cell growth in a cell viability assay.

JAR = type: functional, cell-based, Homo sapiens; details: Homo sapiens, JAR;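 further: growth inhibition of human JAR cells determined with a cell viability assay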
Description: SANGER: Inhibition of human JAR cell growth in a cell viability assay.

KE-37 = type: functional, cell-based; details: Homo sapiens;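 further: growth inhibition of KE-37 cells, read out with a cell viability assay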
Description: SANGER: Inhibition of human KE-37 cell growth in a cell viability assay.

KM-H2 = type: functional, cell-based; details: Homo sapiens;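 further: growth inhibition of KM-H2 cells, read out by a cell viability assay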
Description: SANGER: Inhibition of human KM-H2 cell growth in a cell viability assay.

KP-4 = type: functional, cell-based, Homo sapiens; details: Homo sapiens, KP-4; read-out: IC50;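 further: human KP-4 cells, with growth inhibition read out through a cell viability assay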
Description: SANGER: Inhibition of human KP-4 cell growth in a cell viability assay.

KYSE-140 = type: functional, cell-based, Homo sapiens; details: Homo sapiens, KYSE-140;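 further: cell viability assay measuring growth inhibition in human KYSE-140 cells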
Description: SANGER: Inhibition of human KYSE-140 cell growth in a cell viability assay.

LS-513 = type: functional, cell-based, Homo sapiens; details: Homo sapiens, LS-513
Description: SANGER: Inhibition of human LS-513 cell growth in a cell viability assay.

MDA-MB-453 = type: functional, cell-based, Homo sapiens; details: Homo sapiens, MDA-MB-453
Description: SANGER: Inhibition of human MDA-MB-453 cell growth in a cell viability assay.

MFE-280 = type: functional, cell-based, Homo sapiens; details: Homo sapiens, MFE-280;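 further: growth inhibition of MFE-280 cells, determined with a cell viability readout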
Description: SANGER: Inhibition of human MFE-280 cell growth in a cell viability assay.

MSTO-211H = type: functional, cell-based, Homo sapiens; details: Homo sapiens, MSTO-211H
Description: SANGER: Inhibition of human MSTO-211H cell growth in a cell viability assay.

NB17 = type: functional, cell-based; details: Homo sapiens;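 further: growth inhibition of NB17 cells, read out with a cell viability assay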
Description: SANGER: Inhibition of human NB17 cell growth in a cell viability assay.

NCI-H209 = type: functional, cell-based; details: Homo sapiens;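 further: growth inhibition of human NCI-H209 cells, measured by a cell viability assay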
Description: SANGER: Inhibition of human NCI-H209 cell growth in a cell viability assay.

NCI-H441 = type: functional, cell-based; details: Homo sapiens;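 further: growth inhibition of NCI-H441 cells, read out with a cell viability assay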
Description: SANGER: Inhibition of human NCI-H441 cell growth in a cell viability assay.

NMC-G1 = type: functional, cell-based, Homo sapiens; details: Homo sapiens, NMC-G1;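 further: growth inhibition of the NMC-G1 cell line, measured with a cell viability read-out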
Description: SANGER: Inhibition of human NMC-G1 cell growth in a cell viability assay.

OVCAR-3 = type: functional, cell-based, Homo sapiens; details: Homo sapiens, OVCAR-3;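 further: growth inhibition of human OVCAR-3 cells, determined by a cell viability assay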
Description: SANGER: Inhibition of human OVCAR-3 cell growth in a cell viability assay.

P30-OHK = type: functional, cell-based; details: Homo sapiens;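 further: growth inhibition of the P30-OHK cell line, read out with a cell viability assay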
Description: SANGER: Inhibition of human P30-OHK cell growth in a cell viability assay.

PSN1 = type: functional, cell-based, Homo sapiens; details: Homo sapiens, PSN1;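 further: suppression of growth of human PSN1 cells, read out by a cell viability assay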
Description: SANGER: Inhibition of human PSN1 cell growth in a cell viability assay.

RKO = type: functional, cell-based, Homo sapiens; details: Homo sapiens, RKO;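 further: growth inhibition of human RKO cells, read out with a cell viability assay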
Description: SANGER: Inhibition of human RKO cell growth in a cell viability assay.

RPMI-8226 = type: functional, cell-based; details: Homo sapiens
Description: SANGER: Inhibition of human RPMI-8226 cell growth in a cell viability assay.

SF-268 = type: functional, cell-based, Homo sapiens; details: Homo sapiens, SF-268;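 further: growth inhibition of SF-268 cells determined with a cell viability assay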
Description: SANGER: Inhibition of human SF268 cell growth in a cell viability assay.

SF-295 = type: functional, cell-based, Homo sapiens; details: Homo sapiens, SF-295; read-out: IC50;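 further: growth inhibition of SF-295 cells, read out with a cell viability assay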
Description: SANGER: Inhibition of human SF295 cell growth in a cell viability assay.

SK-MEL-30 = type: functional, cell-based; details: Homo sapiens;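 further: growth inhibition of SK-MEL-30 cells, determined with a cell viability assay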
Description: SANGER: Inhibition of human SK-MEL-30 cell growth in a cell viability assay.

SW1417 = type: functional, cell-based, Homo sapiens; details: Homo sapiens, SW1417;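 further: growth inhibition of human SW1417 cells, read out with a cell viability assay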
Description: SANGER: Inhibition of human SW1417 cell growth in a cell viability assay.

SW1573 = type: functional, cell-based, Homo sapiens; details: Homo sapiens, SW1573;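 further: growth inhibition of SW1573 cells, read out with a cell viability assay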
Description: SANGER: Inhibition of human SW1573 cell growth in a cell viability assay.

SW837 = type: functional, cell-based, Homo sapiens; details: Homo sapiens, SW837;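 further: growth inhibition of SW837 cells, determined with a cell viability assay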
Description: SANGER: Inhibition of human SW837 cell growth in a cell viability assay.

SW 954 = type: functional, cell-based, Homo sapiens; details: Homo sapiens, SW 954;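 further: growth inhibition of SW954 human cancer cells, read out as cell viability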
Description: SANGER: Inhibition of human SW954 cell growth in a cell viability assay.

SW982 = type: functional, cell-based; details: Homo sapiens;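 further: growth inhibition of SW982 cells, read out with a cell viability assay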
Description: SANGER: Inhibition of human SW982 cell growth in a cell viability assay.

ALL-PO = type: functional, cell-based; details: Homo sapiens;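 further: growth inhibition of ALL-PO cells, read out by a cell viability assay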
Description: SANGER: Inhibition of human ALL-PO cell growth in a cell viability assay.

AM-38 = type: functional, cell-based, Homo sapiens; details: Homo sapiens, AM-38;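 further: growth inhibition of AM-38 cells of human origin, read out by a cell viability assay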
Description: SANGER: Inhibition of human AM-38 cell growth in a cell viability assay.

BEN = type: functional, cell-based, Homo sapiens; details: Homo sapiens, BEN;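 further: growth inhibition of the BEN cell line, read out with a cell viability assay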
Description: SANGER: Inhibition of human BEN cell growth in a cell viability assay.

CAL-39 = type: functional, cell-based, Homo sapiens; details: Homo sapiens, CAL-39;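 further: cell viability assay measuring growth inhibition of CAL-39 cells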
Description: SANGER: Inhibition of human CAL-39 cell growth in a cell viability assay.

CAL-51 = type: functional, cell-based, Homo sapiens; details: Homo sapiens, CAL-51;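 further: human CAL-51 cell line, growth inhibition read out via a cell viability assay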
Description: SANGER: Inhibition of human CAL-51 cell growth in a cell viability assay.

TE-8 = type: functional, cell-based, Homo sapiens; details: Homo sapiens, TE-8;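 further: growth inhibition of TE-8 cells, measured with a cell viability readout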
Description: SANGER: Inhibition of human TE-8 cell growth in a cell viability assay.

U-87 MG = type: functional, cell-based, U-87MG ATCC; details: Homo sapiens;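 further: growth inhibition of the cells measured with a viability assay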
Description: SANGER: Inhibition of human U-87-MG cell growth in a cell viability assay.

U-251 = type: functional, cell-based, Homo sapiens; details: Homo sapiens, U-251;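 further: growth inhibition of human U-251 cells, read out through a cell viability assay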
Description: SANGER: Inhibition of human U251 cell growth in a cell viability assay.

UMUC3 = type: functional, cell-based, Homo sapiens; details: Homo sapiens, UMUC3;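 further: growth inhibition of human UM-UC-3 cells, read out with a cell viability assay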
Description: SANGER: Inhibition of human UM-UC-3 cell growth in a cell viability assay.

YKG-1 = type: functional, cell-based, Homo sapiens; details: Homo sapiens, YKG-1;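 further: cell growth inhibition, read out with a viability assay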
Description: SANGER: Inhibition of human YKG-1 cell growth in a cell viability assay.

Measured: IC50

O=C(c1cc(Cc2n[nH]c(=O)c3ccccc23)ccc1F)N1CCN(C(=O)C2CC2)CC1 [OLAPARIB]
1720 nM: ES8
916 nM: NCI-H209
1110 nM: ES1
> 5000 nM: all other assays above

CN(Cc1cnc2nc(N)nc(N)c2n1)c1ccc(C(=O)N[C@@H](CCC(=O)O)C(=O)O)cc1 [METHOTREXATE]
101 nM: RPMI-8226
188 nM: JAR
16.4 nM: ES1
15.5 nM: KE-37
43.6 nM: P30-OHK
5.86 nM: ALL-PO
not listed: COR-L88
> 200 nM: all other assays above
